Data: patent publication US5721211A, “Compositions and methods for treating small cell and nonsmall cell lung cancers” (The George Washington University, priority 1993, dated 1998)
Ends that are not written are not given here.

Key:
[1] = system: lung cancer cells or plasma membranes derived therefrom; assay: direct binding of labeled thymosin to lung cancer cells or plasma membranes; settings: 125I-Tyr labeled ligand
Source text: Direct, i.e., noncompetitive, binding of a labeled ligand to intact cells or plasma membranes may be determined. […] These and other experiments not detailed here indicate that the thymosins may not have specific receptors. Palaszynski, E., Biochemical Studies on Thymosin α1, Ph.D. Thesis, George Washington University, Washington, D.C., 1981. It is thus all the more suprising and unexpected that certain thymosins have such profound inhibitory effects on the binding of VIP to its specific receptors and on the growth promoting effects of VIP in lung cancer cells.

[2] = system: NCI-H720 (lung carcinoid cancer cells); assay: soft agar colonization, NCI-H720; type: cell-based; settings: 1 μM; for NCI-H720 (carcinoid) colonies: colonies greater than 50 μm, mean ± S.E. of 3
Procedure: (§1) The effects of THNα1 on the growth of lung cancer cell lines was studied. Single viable cells were plated in soft agar as previously described (Mahmoud, S., et al., Life Sci., 44:367 (1989)), and, after two weeks, the colonies were stained with 0.1% p-iodonitrotetrazolium violet.
(§2) The experimental conditions of Example 3 were repeated with NCI-H720 (lung carcinoid cancer cells) and NCI-N417 (SCLC lung cancer cells) cell lines. Colonies were counted as before.

[3] = system: NCI-N417 (SCLC lung cancer cells); assay: soft agar colonization, NCI-N417; type: cell-based; settings: 1 μM; for (SCLC) N417 colonies: colonies greater than 50 μm, mean ± S.E. of 3
Procedure: as §1, §2

lung cancer cells = assay: in vitro colonization of lung cancer cells (general statement); type: cell-based
Procedure: Candidate anti-lung cancer peptides and antibodies may be screened in vitro in a soft agar colonization assay such as that described by Mahmoud, S., et al., Life Sci., 44:367 (1989) which is herein incorporated by reference. In general, single viable lung cancer cells are plated in soft agar. After an appropriate growth period, such as 14 days, cell colonies may be stained with an appropriate cytochemical stain, and the stained cells viewed microscopically. Cytochemical stains are well known to those skilled in the art of histology.

[4] = system: NCI-H1299 lung cancer cells; assay: 3H-arachidonic acid (AA) release; type: cell-based; settings: 1 μM; 4 determinations
Procedure: In a procedure substantially as set forth in Moody et al. (1993) supra, NCI-H1299 lung cancer cells were loaded with ^3 H-AA overnight, and after removal of free ^3 H-AA cells, were treated with increasing concentrations of THNα1(1-16)amide (Δ), THNα1 (.largecircle.) and THNα1amide (.box-solid.) (produced as described above). The mean value ± S.E. of 4 determinations is indicated; *,p<0.05; ** p<0.01.

[5] = system: NCI-H510 lung cancer cells; assay: NCI-H510 growth in vivo; parameters: species or system nude mice; settings: 10 μg s.c. daily, week 4, mean of 3 tumors
Procedure: In a procedure substantially as set forth in Moody et al. (1993) supra, NCI-H510 lung cancer cells were injected into nude mice, and tumors formed after one week. The compounds listed in Table V below (produced as described above) were injected (100 microliters) subcutaneously daily. Tumors were measured at week 4.

[6] = system: tumors of both SCLC and NSCLC types of lung cancer cells; parameters: species or system nude mice; settings: mouse, in vivo

## (^125 I-Tyr)-labeled THNα1: 125I-Tyr labeled THNα1 used for direct binding analyses (SDAAVDTSSEITTKDLKEKKEVVEEAEN; ends and bridges not checked; also: 125I-Tyr label, place not given here; UniProt P06454 2-29, looked up)
[1]
  direct (noncompetitive) binding affinity: bind with poor affinity

## thymosin β4 (SDKPDMAEIEKFDKSKLKKTETQEKNPLPSKETIEQEKQAGES; Thymosin beta-4; UniProt P62328 2-44, looked up) [THN β4, a 43-amino acid peptide, MW 4982]
[2]
  N/No, NCI-H720: 0.93
  NCI-H720 (carcinoid) colonies: 68 ± 20
[2]; listed as THNβ4
  NCI-H720 (carcinoid) colonies: did not influence colony number significantly
[3]
  N/No, N417: 1.20
  (SCLC) N417 colonies: 240 ± 68
[3]; listed as THNβ4
  (SCLC) N417 colonies: did not influence colony number significantly
Lung cancer cells
  colony formation of lung cancer cells in vitro: little effect

## Ac-SDAAVDTSSEITTKDL-NH2 [THNα1-N16 (1-16) amide, Ac-Ser-Asp-Ala-Ala-Val-Asp-Thr-Ser-Ser-Glu-Ile-Thr-Thr-Lys-Asp- Leu-NH2]
[4]
  3H-AA release: significantly stimulate
[5]
  Tumor volume: 410 mm^3
[5]; listed as THNα1-N16 (1-16)amide
  Tumor volume: strongly inhibit

## Ac-SDAAVDTSSEITTKDLKEKKEVVEEAEN [THNα1, thymosin α1]
[6]
  toxic side effects: No toxic side effects were observed
